The values below come from US7829560B2, “1,4-disubstituted naphthalenes as inhibitors of P38 MAP kinase” (Arqule, Inc., priority 2004, dated 2010).

The target in test [1] is T1, p38α (Homo sapiens, UniProt Q16539).
T1 construct: p38 MAP Kinases are recombinant human full-length proteins with an amino-terminal GST fusion; GST (N); purchased Upstate Biotechnology Inc; host or cells: E. coli
Description: p38 MAP Kinase assay: inhibition of ATF2 phosphorylation, ELISA. The conditions noted are these: for IC50: ATF2 phosphorylation, read-out: [ENZ] P38 ALPHA, IC50, ELISA; for inhibition at 10 µM: substrate ATF2, read-out: [ENZ] P38 ALPHA, PCT INH, ELISA (10 uM;ATF2) (Percent). It is filed as biochemical. The method, boiled down: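 GST-tagged full-length human p38 MAP kinase with GST-ATF2 (aa 19–96; 1.25 μM) and 40 μM ATP in HEPES pH 7.5 buffer, without (Method I) or with (Method II) 1% human serum albumin. Compound pre-incubated 15 min at room temperature; reaction 30 min at 37 °C; ATF2 Thr69 phosphorylation measured by ELISA (A450).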

Test [2] has as its system TNFα release from THP-1 cells. Kind of test: Inhibition of TNFα release from LPS-stimulated THP-1 cells, ELISA. Format: cell-based. Particulars: Homo sapiens, THP-1, THP-1 cells, read-out: [CELL] THP-1, IC50, TNF ALPHA, ELISA. An excerpt:
Compounds of the invention are screened for the ability to inhibit TNFα and IL-1β release from THP-1 cells stimulated with lipopolysaccharide (LPS) in vitro. The ability of compounds to inhibit TNFα and IL-1β release in this in vitro assay is correlated with the inhibition of p38 activity and TNFα and IL-1β expression in vivo, and is therefore an indicator of potential in vivo therapeutic activity (Lee J. C. et al, Ann. N.Y. Acad. Sci. 696: 149-170, 1993 and Nature, 372: 739-746, 1994).
Materials: THP-1 cells from ATCC (TIB202) are maintained at 37° C., 5% CO2 in RPMI 1640 media (available from MediaTech, Herndon, Va.) containing 4.5 g/L glucose, supplemented with 10% fetal bovine serum, 1% penicillin/streptomycin and 50 μM β-mercaptoethanol.
Methods: Test compounds are initially dissolved in RPMI media with 1% DMSO (v/v). Compounds are then serially diluted in RPMI media for all subsequent dilutions. The assay is performed under sterile conditions. THP-1 cells at a culture density of 6-8×10^5 cells/ml are collected and resuspended in the RPMI media at 10^6 cells/ml containing 10% fetal bovine serum, no serum or 1% human serum albumin (HSA). 100 μl of resuspended cells are added to each well, which contain 100 μl of a test compound. Test compounds are prepared at twice the final concentration. Final DMSO concentration is no more than 0.5% (v/v). Cells are preincubated with compound for 30 minutes at 37° C., 5% CO2 prior to stimulation with lipopolysaccharide (LPS) (Sigma L-2880, 4 mg/ml stock in PBS). The final LPS concentration in each well is 10 or 30 μg/ml for TNFα and IL-1β release, respectively. Unstimulated control cell suspensions receive PBS vehicle only. Cell mixtures are incubated for 18 or 48 hours for TNFα and IL-1β prelease, respectively. 150 μl of supernatants are taken and transferred to a fresh plate and stored at −20° C. until further analysis. TNFα and IL-1β levels are measured using ELISA kits from Biosource (Catalog no. KHC3012 for TNFα; KAC1192 for IL-1β). A SpectraMAX 250 is used as the plate reader. Analysis is performed by non-linear regression to generate a dose response curve. The calculated IC50 value is the concentration of the test compound that causes a 50% decrease in TNFα or IL-1β levels.

T1 sequence (Q16539 whole entry, the tested form may be a part): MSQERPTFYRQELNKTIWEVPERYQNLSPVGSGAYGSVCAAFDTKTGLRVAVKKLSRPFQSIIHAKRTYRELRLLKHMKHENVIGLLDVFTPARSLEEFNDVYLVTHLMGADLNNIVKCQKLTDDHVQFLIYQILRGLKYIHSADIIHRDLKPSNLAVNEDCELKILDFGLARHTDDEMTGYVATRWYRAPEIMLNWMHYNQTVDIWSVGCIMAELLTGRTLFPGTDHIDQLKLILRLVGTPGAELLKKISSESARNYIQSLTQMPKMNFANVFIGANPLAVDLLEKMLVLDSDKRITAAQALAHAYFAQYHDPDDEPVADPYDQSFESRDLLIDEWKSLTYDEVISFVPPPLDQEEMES

With `O=C(Nc1ccc(OCCN2CCOCC2)c2ccccc12)c1ccnc(N2CCC3(CC2)OCCO3)c1` [Compound B44, 2-(1,4-Dioxa-8-aza-spiro[4.5]dec-8-yl)-N-[4-(2-morpholin-4-yl-ethoxy)-naphthalen-1-yl]-isonicotinamide], the figures for the IC50 in test [1] and in test [2] were > 10 µM and 1.01 µM, respectively.

With `O=C(Nc1ccc(OCCN2CCOCC2)c2ccccc12)c1cc(Br)cc(I)c1` [Compound B27], the IC50 was > 100 µM in test [1] and > 10 µM in test [2].

With `O=C(Nc1ccc(Oc2ccnc(N3CCC(F)(F)CC3)n2)c2ccccc12)c1cc(F)cc(N2CCOCC2)c1` [Compound B361], the IC50 came out at 0.0555 µM in test [1] and 0.475 µM in test [2].

Take `CC1CC(C)CN(c2nccc(Oc3ccc(NC(=O)c4cc(F)cc(N5CCCCC5)c4)c4ccccc34)n2)C1` (centres unmarked) [Compound B391]: the IC50 in test [1] is 0.207 µM; in test [2], > 1 µM.

Turning to `CC1CCCN1c1cc(C(=O)Nc2ccc(OCCN3CCOCC3)c3ccccc23)ccn1` (centres unmarked) [Compound B130, 2-(2-Methyl-pyrrolidin-1-yl)-N-[4-(2-morpholin-4-yl-ethoxy)-naphthalen-1-yl]-isonicotinamide], the inhibition at 10 µM in test [1] was 88.5%. The half-inhibitory concentration (IC50) stood at 0.822 µM in test [1] and 2.34 µM in test [2].

Take `CC(=O)c1cccc(-c2cccc(C(=O)Nc3ccc(OCCN4CCOCC4)c4ccccc34)c2)c1` [Compound B279]: the IC50 in test [1] and in test [2] was > 10 µM each time.

Turning to `O=C(Nc1ccc(OCCN2CCOCC2)c2ccccc12)c1cc(F)cc(N2CCC3CCCCC3C2)c1` (centres unmarked) [Compound B213], the IC50 in test [1] and in test [2] was > 10 µM each time.

`O=C(Nc1ccc(OCCN2CCC(CO)CC2)c2ccccc12)c1cc(F)cc(N2CCCCC2)c1` [Compound B163, 3-Fluoro-N-{4-[2-(4-hydroxymethyl-piperidin-1-yl)-ethoxy]-naphthalen-1-yl}-5-piperidin-1-yl-benzamide]: in test [1], the inhibition at 10 µM stood at 57% and the IC50 was 4.84 µM. The IC50 in test [2] is > 10 µM.

For the compound `COCC(C)Nc1nccc(Oc2ccc(NC(=O)c3cc(F)cc(N4CCOCC4)c3)c3ccccc23)n1` (centres unmarked) [Compound B353], the IC50 in test [1] worked out at 0.0039 µM; in test [2] it was 0.0926 µM.

For the compound `CC(=O)c1ccc(-c2cccc(C(=O)Nc3ccc(OCCN4CCOCC4)c4ccccc34)c2)cc1` [Compound B274], the IC50 in test [1] and in test [2] was > 10 µM each time.

With `O=C(Nc1ccc(OCCN2CCOCC2)c2ccccc12)c1cccc(-c2ccc(C(F)(F)F)cc2)c1` [Compound B271], the figures for the IC50 in test [1] and in test [2] were > 10 µM and 4.03 µM, respectively.

On to `O=C(Nc1ccc(OCCN2CCOCC2)c2ccccc12)c1cccc(-c2ccccc2F)c1` [Compound B278, 2′-Fluoro-biphenyl-3-carboxylic acid [4-(2-morpholin-4-yl-ethoxy)-naphthalen-1-yl]-amide], for which the IC50 in test [1] is 0.935 µM; in test [2] it was 3.69 µM.

In the case of `O=C(Nc1ccc(OCCN2CCOCC2)c2ccccc12)c1cccc(-c2ccccc2Cl)c1` [Compound B101], in test [1], the inhibition at 10 µM was 87% and the IC50 stood at 0.864 µM. For the same compound, the IC50 in test [2] amounted to 2.03 µM.

Turning to `Cc1cc(Cl)ccc1-c1cccc(C(=O)Nc2ccc(OCCN3CCOCC3)c3ccccc23)c1` [Compound B293], the IC50 in test [1] was 10.3 µM; in test [2] it was > 10 µM.

As to `O=C(Nc1ccc(OCCN2CCOCC2)c2ccccc12)c1cccc(Oc2ccccc2)c1` [Compound B61], the IC50 in test [1] was 2.3 µM; in test [2], > 10 µM.

Take `Cc1cc(F)ccc1-c1cccc(C(=O)Nc2ccc(Oc3ccnc(NCC(C)(C)CN(C)C)n3)c3ccccc23)c1` [Compound B314, 4′-Fluoro-2′-methyl-biphenyl-3-carboxylic acid {4-[2-(3-dimethylamino-2,2-dimethyl-propylamino)-pyrimidin-4-yloxy]-naphthalen-1-yl}-amide]: the IC50 turned out to be 0.001 µM in test [1] and 0.0412 µM in test [2].

As to `O=C(Nc1ccc(Oc2ccnc(NCC3CCCO3)n2)c2ccccc12)c1cc(F)cc(N2CCCCC2)c1` (centres unmarked) [Compound B386, 3-Fluoro-5-piperidin-1-yl-N-[4-({2-[(tetrahydrofuran-2-ylmethyl)amino]pyrimidin-4-yl}oxy)-1-naphthyl]benzamide], the IC50 was found to be 0.0018 µM in test [1] and 0.0262 µM in test [2].

On to `Cc1cccc(C(=O)Nc2ccc(OCCN3CCOCC3)c3ccccc23)c1Cl` [Compound B82], for which the inhibition at 10 µM in test [1] was 41.3%. Besides, the IC50 in test [2] was 10.7 µM.

Take `CCOC(=O)N1CCN(CCOc2ccc(NC(=O)c3ccc(CN4CCOCC4)cc3)c3ccccc23)CC1` [Compound B3]: the IC50 in test [1] and in test [2] was > 10 µM throughout.

As for `O=C(Nc1ccc(OCCN2CCOCC2)c2ccccc12)c1cnc(N2CCOCC2)c2ccccc12` [Compound B28], the IC50 in test [1] was > 100 µM; in test [2], > 10 µM.

With `O=C(Nc1ccc(OCCN2CCOCC2)c2ccccc12)c1cccc(-c2cc(F)ccc2F)c1` [Compound B280], the IC50 in test [1] was found to be 5.6 µM; in test [2], 3.52 µM.

With `COC(CNc1nccc(Oc2ccc(NC(=O)c3cc(F)cc(N4CCOCC4)c3)c3ccccc23)n1)OC` [Compound B357], the IC50 was found to be 0.003 µM in test [1] and 0.0301 µM in test [2].

With `CN(C)c1ccc(C(=O)Nc2ccc(OCCN3CCOCC3)c3ccccc23)cc1` [Compound B34], the results for the IC50 in test [1] and in test [2] were 10.7 µM and > 10 µM, respectively.

As for `Cc1cc(COc2ccc(NC(=O)c3cc(F)cc(N4CCC(C)CC4)c3)c3ccccc23)no1` [Compound B243], the IC50 in test [1] and in test [2] was > 10 µM throughout.

Regarding `O=C(Nc1ccc(OCCN2CCOCC2)c2ccccc12)c1cccc(-c2cc(Cl)ccc2Cl)c1` [Compound B295], the IC50 came to 5.03 µM in test [1] and 2.83 µM in test [2].

Turning to `Cc1cccc(C(=O)Nc2ccc(OCCN3CCOCC3)c3ccccc23)c1` [Compound B56], the IC50 in test [1] and in test [2] was > 10 µM each time.

As to `CCCC/C=C/c1cccc(C(=O)Nc2ccc(OCCN3CCOCC3)c3ccccc23)c1` [Compound B99], in test [1], the inhibition at 10 µM came to 45% and the IC50 is > 10 µM. Moreover, the IC50 in test [2] came to 5.57 µM.

With `Cc1cc(-c2cccc(C(=O)Nc3ccc(OCCN4CCOCC4)c4ccccc34)c2)ccc1Cl` [Compound B300], the results for the IC50 in test [1] and in test [2] were 9.08 µM and 9.06 µM, respectively.

`COc1ccccc1-c1cccc(C(=O)Nc2ccc(OCCN3CCOCC3)c3ccccc23)c1` [Compound B90]: in test [1], the inhibition at 10 µM is 78% and the IC50 is 1.33 µM. The IC50 in test [2] came out at 5.25 µM.

Turning to `O=C(Nc1ccc(OCCN2CCOCC2)c2ncccc12)c1cc(F)cc(N2CCOCC2)c1` [Compound B244], the IC50 in test [1] and in test [2] was > 10 µM throughout.

Take `CC1CCN(c2cc(C(=O)Nc3ccc(OCCN4CCOCC4)c4ccccc34)ccn2)CC1` [Compound B128, 4-Methyl-3,4,5,6-tetrahydro-2 H-[1,2′]bipyridinyl-4′-carboxylic acid [4-(2-morpholin-4-yl-ethoxy)-naphthalen-1-yl]-amide]: in test [1], the inhibition at 10 µM worked out at 82% and the IC50 is 1.15 µM. Further, the IC50 in test [2] was 8.71 µM.
